# Measured values from patent publication US7592168B2, “Cephalosporin C acylase mutant and method for preparing 7-ACA using same” (Sandoz AG, priority 2003, dated 2009).
# Substitutions are numbered along the chain they refer to.
# Experiments:
# Format in all cases: biochemical
# [1] = biological target: T1, Pseudomonas sp. SE83 CPC acylase AcyII, wild type, SEQ ID NO: 2 (alpha-subunit SEQ ID NO: 4, beta-subunit SEQ ID NO: 5) (Pseudomonas sp., UniProt P15558); assay: End-product inhibition by 7-ACA (inhibition constant), wild-type CPC acylase; conditions: end-product inhibition of CPC conversion; pH 8.5
# T1 construct: made in house; host or cells: E. coli MC1061
# T1 sequence (P15558 2-230): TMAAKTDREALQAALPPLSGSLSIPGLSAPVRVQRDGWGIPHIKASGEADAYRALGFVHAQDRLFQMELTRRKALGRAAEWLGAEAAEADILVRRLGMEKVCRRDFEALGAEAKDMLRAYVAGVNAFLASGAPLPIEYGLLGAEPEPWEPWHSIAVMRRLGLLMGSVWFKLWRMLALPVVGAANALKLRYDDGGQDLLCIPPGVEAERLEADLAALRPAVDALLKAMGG
# T1 sequence (P15558 240-774): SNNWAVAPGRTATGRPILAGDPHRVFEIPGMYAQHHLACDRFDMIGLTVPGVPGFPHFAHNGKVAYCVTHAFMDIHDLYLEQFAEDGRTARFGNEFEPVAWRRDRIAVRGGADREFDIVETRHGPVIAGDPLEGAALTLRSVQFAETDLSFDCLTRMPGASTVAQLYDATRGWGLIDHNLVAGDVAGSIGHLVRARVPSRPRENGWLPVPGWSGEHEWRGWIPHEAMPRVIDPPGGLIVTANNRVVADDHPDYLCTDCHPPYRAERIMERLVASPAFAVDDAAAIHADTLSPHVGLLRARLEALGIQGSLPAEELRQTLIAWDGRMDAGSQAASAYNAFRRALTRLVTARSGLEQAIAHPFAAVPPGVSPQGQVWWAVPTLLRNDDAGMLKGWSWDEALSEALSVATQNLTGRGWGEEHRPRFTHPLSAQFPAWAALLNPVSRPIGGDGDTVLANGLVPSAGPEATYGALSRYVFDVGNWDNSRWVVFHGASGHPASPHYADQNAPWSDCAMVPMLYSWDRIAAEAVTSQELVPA
# Description: (§1) The enzyme activity of CPC acylase mutant to CPC was measured according to the method described by Park et al. with minor modifications as follows (Park, et al., Kor. J. Appl. Microbiol. Biotechnol. 23: 559-564, 1995). A substrate solution was prepared by dissolving CPC (purity 74.2%; CJ Corp., Korea) in 0.1 M Tris-HCl buffer solution (pH 8.0) at a concentration of 20 mg/ml and adjusting pH to 8 with 1 N NaOH. 20 μl of the CPC solution was mixed with 20 μl of the crude enzyme solution prepared above and the reaction mixture was incubated at 37° C. for 5 min. After the reaction, the mixture (200 μl) of 50 mM NaOH and 20% glacial acetic acid (1:2) was added thereto to stop the reaction. 200 μl of the supernatant recovered from the reaction mixture by centrifugation was mixed with 40 μl of 0.5% (w/v) PDAB (p-dimethylaminobenzaldehyde; Sigma, USA) dissolved in a methanol and the reaction mixture was incubated at 37° C. for 10 min. After the reaction, the absorbance of reaction mixture was measured at 415 nm and quantified by comparing with a calibration curve of standard material. […] Meanwhile, the specific activity of CPC acylase mutant for CPC was determined by measuring the amount of protein remaining in the enzyme solution according to the method described by Bradford (Bradford, M., Anal. Biochem. 72: 248-254, 1976) and representing it as an active unit corresponding to 1 mg of protein. […]
# [2] = biological target: T2, Pseudomonas sp. SE83 CPC acylase AcyII sixfold mutant S12, V121αA/G139αS/F58βN/I75βT/I176βV/S471βC (alpha-subunit SEQ ID NO: 7, beta-subunit SEQ ID NO: 8) (Pseudomonas sp., UniProt P15558, F297N/G140S/I314T/I415V/S710C/V122A); assay: End-product inhibition by 7-ACA (inhibition constant), S12 sixfold mutant; conditions: end-product inhibition of CPC conversion; purified enzyme; pH 8.5
# T2 construct: made in house; host or cells: E. coli MC1061
# T2 sequence (P15558 2-230 V122A/G140S): T1 sequence (P15558 2-230) with V121A, G139S
# T2 sequence (P15558 240-774 F297N/I314T/I415V/S710C): T1 sequence (P15558 240-774) with F58N, I75T, I176V, S471C
# Description: as §1
# [3] = biological target: T3, Pseudomonas sp. SE83 CPC acylase AcyII fivefold mutant F169αY/M31βL/F58βM/H70βS/I176βV (mI176) (Pseudomonas sp., UniProt P15558, F170Y/F297M/H309S/I415V/M270L); assay: CPC hydrolysis kinetics (Lineweaver-Burk plot), fivefold mutant; conditions: substrate CPC; purified enzyme; 0.1 M Tris-HCl pH 8.0, 37° C.; Lineweaver-Burk plot
# T3 construct: made in house; host or cells: E. coli MC1061
# T3 sequence (P15558 240-774 M270L/F297M/H309S/I415V): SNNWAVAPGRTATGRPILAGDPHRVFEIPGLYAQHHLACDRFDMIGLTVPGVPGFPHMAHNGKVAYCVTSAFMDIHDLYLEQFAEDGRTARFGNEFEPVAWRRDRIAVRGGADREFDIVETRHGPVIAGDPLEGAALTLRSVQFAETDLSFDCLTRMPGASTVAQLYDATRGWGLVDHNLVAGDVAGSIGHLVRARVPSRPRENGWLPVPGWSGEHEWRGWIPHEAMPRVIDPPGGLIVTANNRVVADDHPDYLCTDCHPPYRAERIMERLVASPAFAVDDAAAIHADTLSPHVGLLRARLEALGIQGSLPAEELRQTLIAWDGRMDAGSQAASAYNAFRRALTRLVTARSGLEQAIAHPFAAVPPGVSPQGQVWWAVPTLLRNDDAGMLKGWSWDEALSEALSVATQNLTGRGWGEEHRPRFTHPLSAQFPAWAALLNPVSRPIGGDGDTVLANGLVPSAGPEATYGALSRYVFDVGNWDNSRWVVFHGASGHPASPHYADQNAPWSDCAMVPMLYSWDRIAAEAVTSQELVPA
# T3 sequence (P15558 2-230 F170Y): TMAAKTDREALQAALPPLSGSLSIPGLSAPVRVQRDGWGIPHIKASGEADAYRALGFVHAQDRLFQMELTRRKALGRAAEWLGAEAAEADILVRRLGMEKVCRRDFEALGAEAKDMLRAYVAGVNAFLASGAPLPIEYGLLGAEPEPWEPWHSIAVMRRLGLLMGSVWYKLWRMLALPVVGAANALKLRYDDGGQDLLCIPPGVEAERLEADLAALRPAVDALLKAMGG
# Description: (§2) The enzyme activity of CPC acylase mutant to CPC was measured according to the method described by Park et al. with minor modifications as follows (Park, et al., Kor. J. Appl. Microbiol. Biotechnol. 23: 559-564, 1995). A substrate solution was prepared by dissolving CPC (purity 74.2%; CJ Corp., Korea) in 0.1 M Tris-HCl buffer solution (pH 8.0) at a concentration of 20 mg/ml and adjusting pH to 8 with 1 N NaOH. 20 μl of the CPC solution was mixed with 20 μl of the crude enzyme solution prepared above and the reaction mixture was incubated at 37° C. for 5 min. After the reaction, the mixture (200 μl) of 50 mM NaOH and 20% glacial acetic acid (1:2) was added thereto to stop the reaction. 200 μl of the supernatant recovered from the reaction mixture by centrifugation was mixed with 40 μl of 0.5% (w/v) PDAB (p-dimethylaminobenzaldehyde; Sigma, USA) dissolved in a methanol and the reaction mixture was incubated at 37° C. for 10 min. After the reaction, the absorbance of reaction mixture was measured at 415 nm and quantified by comparing with a calibration curve of standard material. At this time, 1 unit has been defined as the amount of enzyme capable to produce 1 μmole of 7-ACA from CPC per minute. Meanwhile, the specific activity of CPC acylase mutant for CPC was determined by measuring the amount of protein remaining in the enzyme solution according to the method described by Bradford (Bradford, M., Anal. Biochem. 72: 248-254, 1976) and representing it as an active unit corresponding to 1 mg of protein. The reactivity of CPC acylase mutant to CPC was determined by the following steps of adding the same amount of protein to a reaction mixture, performing an enzyme reaction for a fixed time, measuring the amount of 7-ACA produced in the reaction mixture, and representing it as a relative value. The end-product inhibition by 7-ACA was determined by adding a protein corresponding to the same active unit to a reaction mixture, performing an enzyme reaction for a fixed time; measuring the amount of 7-ACA produced in the reaction mixture, and representing it as a relative value.
# (§3) E. coli MC1061 transformant containing the recombinant plasmid introduced with the wild-type or the inventive CPC acylase mutant gene was cultivated in 1 l of a terrific broth (1.2% Bacto-Trypton, 2.4% Yeast Extract, 0.4% glycerol, […]) containing […] of chloramphenicol at 30° C. for 16 hr to obtain a pre-culture solution. 10 ml of the pre-culture solution was inoculated into the same medium, and then, cultured at 25° C., 200 rpm for 48 hr with vigorous shaking. The culture solution was subjected to centrifugation at 4° C., 8,000 rpm for 10 min to separate a precipitate, and the precipitate washed twice with 20 mM Tris-HCl buffer solution (pH 8.0). […]
# [4] = system: Pseudomonas sp. SE83 CPC acylase AcyII fivefold mutant F169αY/M31βL/F58βM/H70βS/I176βV (mI176); assay: as above; conditions: substrate CPC; fivefold mutant vs wild-type
# Description: as §2, §3
Compound,Ki [1] [mM],Ki [2] [mM],Kcat [3] [s⁻¹],Kcat/Km [3] [M⁻¹ s⁻¹],higher reaction efficiency to CPC as compared with the wild-type enzyme [4],lower Km value as compared with the wild-type enzyme [4]
"CC(=O)OCC1=C(C(=O)O)N2C(=O)[C@@H](N)[C@H]2SC1 [7-ACA, 7-aminoacephalosporanic acid]",0.4,1.9,–,–,–,–
"CC(=O)OCC1=C(C(=O)O)N2C(=O)[C@@H](NC(=O)CCC[C@@H](N)C(=O)O)[C@H]2SC1 [CPC, Cephalosporin C]",–,–,2.4,300,about 15 fold,about 6.3 fold
